# The supplement of paper PMC10307832
# Columns and labels:
# Experiment in all cases: relative viability (nuclei count vs DMSO), 5 days (fraction); higher = more cells survive
# [1] = compound: C1=CC=C(C(=C1)C2=CC=C(C=C2)C3=CSC4=C3C(=C(C(=O)N4)C#N)O)O + Nc1ncn([C@H]2C[C@H](O)[C@@H](CO)O2)c(=O)n1 [Decitabine] (partner 2 µM)
# Procedure, shortened: (§1)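 After 5 days of treatment, lung cancer cells in 1536-well plates were fixed and stained in a single step (final 0.05% Triton X-100, 1% formaldehyde, 1 ug/ml Hoechst) and their nuclei counted on 4× images. Treatment had been applied by pin tool the day after seeding as one drug alone or as a fixed anchor-drug dose with five library-drug doses (not always all listed) in √10 steps. Relative viability is the nuclei count of treated wells divided by that of vehicle wells, and values are medians of duplicate plates.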
# Ricolinostat + Foretinib = compound: O=C(CCCCCCNC(=O)c1cnc(N(c2ccccc2)c2ccccc2)nc1)NO [Ricolinostat] + COc1cc2c(Oc3ccc(NC(=O)C4(C(=O)Nc5ccc(F)cc5)CC4)cc3F)ccnc2cc1OCCCN1CCOCC1 [Foretinib] (partner 0.25 µM)
# Procedure, shortened: as §1
# [2] = compound: C1=CC=C(C(=C1)C2=CC=C(C=C2)C3=CSC4=C3C(=C(C(=O)N4)C#N)O)O + COc1cccc2cc(-c3nc([C@H]4CC[C@H](C(=O)O)CC4)n4ncnc(N)c34)[nH]c12 [OSI-027] (partner 0.5 µM)
# Procedure, shortened: as §1
# TGX 221 + Decitabine = compound: CC1=CN2C(=O)C=C(N=C2C(=C1)C(C)NC3=CC=CC=C3)N4CCOCC4 [TGX 221] + Nc1ncn([C@H]2C[C@H](O)[C@@H](CO)O2)c(=O)n1 [Decitabine] (partner 2 µM)
# Procedure, shortened: as §1
Cell Line,relative viability ([1]; first compound 0.08 µM),relative viability ([1]; first compound 0.253 µM),relative viability ([1]; first compound 0.8 µM),relative viability ([1]; first compound 2.53 µM),relative viability ([1]; first compound 8 µM),relative viability (Ricolinostat + Foretinib; first compound 0.08 µM),relative viability (Ricolinostat + Foretinib; first compound 0.253 µM),relative viability (Ricolinostat + Foretinib; first compound 0.8 µM),relative viability (Ricolinostat + Foretinib; first compound 2.53 µM),relative viability ([2]; first compound 0.08 µM),relative viability ([2]; first compound 0.253 µM),relative viability ([2]; first compound 0.8 µM),relative viability ([2]; first compound 2.53 µM),relative viability ([2]; first compound 8 µM),relative viability (TGX 221 + Decitabine; first compound 0.08 µM),relative viability (TGX 221 + Decitabine; first compound 0.253 µM),relative viability (TGX 221 + Decitabine; first compound 0.8 µM),relative viability (TGX 221 + Decitabine; first compound 2.53 µM),relative viability (TGX 221 + Decitabine; first compound 8 µM)
NCI-H1437,0.515,0.674,0.57,0.596,0.466,1.12,1.28,1.17,1.05,0.869,1.05,0.868,0.873,0.703,0.574,0.56,0.619,0.545,0.574
SK-MES-1,0.382,0.408,0.383,0.404,0.376,0.782,0.946,0.928,0.917,0.711,0.666,0.562,0.67,0.419,0.397,0.365,0.373,0.395,0.36
NCI-H647,,0.532,0.407,0.439,0.279,1,1,1.01,1.02,0.694,0.578,0.568,0.628,0.362,0.288,0.406,0.385,0.355,0.384
LK-2,0.178,0.228,0.236,0.343,0.314,1.18,1.35,1.51,0.934,,0.161,0.178,0.218,0.203,0.341,0.308,0.25,0.296,0.307
LU99A,0.894,0.523,0.961,0.777,1.02,0.727,0.631,0.734,0.571,0.3,0.263,0.27,0.345,0.301,0.861,0.842,0.852,0.937,0.997
NCI-H661,0.532,0.559,0.538,0.558,0.436,0.849,0.983,1,0.81,0.648,0.739,0.524,0.649,0.664,0.537,0.529,0.56,0.564,0.505
NCI-H520,0.476,0.476,0.559,0.509,0.462,,0.889,0.89,0.688,0.174,0.192,0.237,0.304,0.233,0.449,0.428,0.306,0.341,0.335
HCC-78,0.75,0.82,0.655,0.808,0.642,,0.526,0.553,0.427,0.42,0.405,0.397,0.381,0.326,0.589,0.736,0.699,0.693,0.68
NCI-H1666,0.662,0.851,0.742,0.664,0.601,0.967,1.01,1.02,0.914,0.804,1.09,0.901,0.777,0.745,0.649,0.738,0.76,0.709,0.664
EKVX,0.396,0.412,0.857,0.695,0.326,0.845,0.846,,0.725,0.777,0.775,0.71,0.724,0.509,0.346,0.313,0.345,0.367,0.307
HARA,0.592,0.769,0.596,0.548,0.459,0.968,0.901,0.767,0.646,0.386,0.661,0.524,0.428,0.297,0.604,0.488,0.529,0.504,0.433
A-427,0.517,0.595,0.567,0.563,0.656,,1.17,0.925,1.14,0.363,0.505,0.514,0.432,0.452,0.548,0.55,0.558,0.594,0.519
NCI-H2087,0.279,0.31,0.284,0.259,0.254,,1.09,1.07,1.05,0.551,0.772,0.568,0.57,0.358,0.231,0.261,0.235,0.252,0.304
NCI-H460,0.387,0.437,0.531,0.5,0.398,0.972,0.927,1.04,1.04,0.36,0.755,0.377,0.868,0.462,0.488,0.442,0.489,0.453,0.401
PC-14,0.222,0.242,0.24,0.225,0.195,0.954,0.898,0.892,0.828,0.924,0.986,0.874,0.978,0.46,0.206,0.203,0.228,0.281,0.207
NCI-H2009,0.384,0.47,0.415,0.372,0.36,1.16,1.19,1.2,1.05,0.624,0.63,0.555,0.612,0.509,0.384,0.339,0.352,0.471,0.327
